Assay [1] concerns the target Death-associated protein kinase 1 (Homo sapiens) (UniProt P53355). Briefly: Inhibition of partial length wild type human DAPK1 (M1 to F296 residues) expressed in bacterial expression system assessed as residual activity at 10 uM by KINOMEscan assay relative to control.
Assay [2] deals with T1, Dual specificity tyrosine-phosphorylation-regulated kinase 2 (Homo sapiens) (UniProt Q92630).
T1 sequence (whole entry): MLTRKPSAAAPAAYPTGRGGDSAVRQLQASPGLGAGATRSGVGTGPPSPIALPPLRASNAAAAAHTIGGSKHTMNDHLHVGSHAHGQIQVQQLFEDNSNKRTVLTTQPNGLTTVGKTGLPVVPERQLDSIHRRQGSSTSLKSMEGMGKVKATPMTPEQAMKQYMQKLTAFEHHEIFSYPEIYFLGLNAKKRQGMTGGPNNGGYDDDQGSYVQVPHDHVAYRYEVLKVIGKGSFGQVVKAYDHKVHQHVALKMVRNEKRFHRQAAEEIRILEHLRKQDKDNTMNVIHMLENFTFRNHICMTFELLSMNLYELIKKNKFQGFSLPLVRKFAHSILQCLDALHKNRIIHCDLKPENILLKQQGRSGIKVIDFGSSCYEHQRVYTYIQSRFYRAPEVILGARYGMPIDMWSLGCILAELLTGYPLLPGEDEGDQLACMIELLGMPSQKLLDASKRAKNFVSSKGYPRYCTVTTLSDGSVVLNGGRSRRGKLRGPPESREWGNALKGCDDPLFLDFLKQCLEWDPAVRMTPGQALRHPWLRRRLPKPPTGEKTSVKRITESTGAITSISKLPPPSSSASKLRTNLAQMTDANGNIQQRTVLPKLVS
Nature of the assay: Inhibition of full length wild type human DYRK2 (M1 to S528 residues) expressed in mammalian expression system assessed as residual activity at 10 uM by KINOMEscan assay relative to control.

In assay [3] the target is Serine/threonine-protein kinase pim-1 (Homo sapiens, UniProt P11309). Briefly: Inhibition of partial length wild type human PIM1 (A15 to K313 residues) expressed in bacterial expression system assessed as residual activity at 10 uM by KINOMEscan assay relative to control.

Consider `O=C1NC(=S)S/C1=C\c1csc(-c2ccc(C(F)(F)F)cc2)n1`, for which the values for the Activity in assay [1], in assay [2] and in assay [3] were 102%, 95% and 1%, respectively.

The values are drawn from ChEMBL document CHEMBL4028814, “Thiazolidine derivatives as potent and selective inhibitors of the PIM kinase family” (Bioorg Med Chem, 2017).
